In the supplement of paper PMC13380429:

Legend:
Conditions in all cases: 72 h
Caco-2 [1] = test: cell viability relative to DMSO; higher = less toxic
Calu-3 [2] = test: as above
HepG2 [3] = test: as above
U2OS [4] = test: as above
Caco-2 [5] = test: relative viability EC50 (midpoint between 100% and the lowest measured viability); higher = less toxic
Calu-3 [6] = test: as above
HepG2 [7] = test: as above
U2OS [8] = test: as above
Caco-2 [9] = test: drug sensitivity score (DSS) for viability; higher = more toxic; extreme values may be limits of the assay
Calu-3 [10] = test: as above
HepG2 [11] = test: as above
U2OS [12] = test: as above
Vero E6 [13] = test: cell viability relative to DMSO; higher = less toxic
Vero E6 [14] = test: relative viability EC50 (midpoint between 100% and the lowest measured viability); higher = less toxic
Vero E6 [15] = test: drug sensitivity score (DSS) for viability; higher = more toxic; extreme values may be limits of the assay

Row | SMILES | cell viability (Caco-2 [1]; 1 nM) | cell viability (Caco-2 [1]; 10 nM) | cell viability (Caco-2 [1]; 100 nM) | cell viability (Caco-2 [1]; 1000 nM) | cell viability (Caco-2 [1]; 10000 nM) | cell viability (Calu-3 [2]; 1 nM) | cell viability (Calu-3 [2]; 10 nM) | cell viability (Calu-3 [2]; 100 nM) | cell viability (Calu-3 [2]; 1000 nM) | cell viability (Calu-3 [2]; 10000 nM) | cell viability (HepG2 [3]; 1 nM) | cell viability (HepG2 [3]; 10 nM) | cell viability (HepG2 [3]; 100 nM) | cell viability (HepG2 [3]; 1000 nM) | cell viability (HepG2 [3]; 10000 nM) | cell viability (U2OS [4]; 1 nM) | cell viability (U2OS [4]; 10 nM) | cell viability (U2OS [4]; 100 nM) | cell viability (U2OS [4]; 1000 nM) | cell viability (U2OS [4]; 10000 nM) | relative viability EC50 (Caco-2 [5]) | relative viability EC50 (Calu-3 [6]) | relative viability EC50 (HepG2 [7]) | relative viability EC50 (U2OS [8]) | drug sensitivity score (Caco-2 [9]) | drug sensitivity score (Calu-3 [10]) | drug sensitivity score (HepG2 [11]) | drug sensitivity score (U2OS [12]) | cell viability (Vero E6 [13]; 1 nM) | cell viability (Vero E6 [13]; 10 nM) | cell viability (Vero E6 [13]; 100 nM) | cell viability (Vero E6 [13]; 1000 nM) | cell viability (Vero E6 [13]; 10000 nM) | relative viability EC50 (Vero E6 [14]) | drug sensitivity score (Vero E6 [15])
1 | NC(=O)c1ccc[n+]([C@@H]2O[C@H](COP(=O)([O-])OP(=O)(O)OC[C@H]3O[C@@H](n4cnc5c(N)ncnc54)[C@H](O)[C@@H]3O)[C@@H](O)[C@H]2O)c1 [nadide] | 92.3% | 89.7% | 99.9% | 90.5% | 113% | 102% | 103% | 94% | 96.1% | 106% | 110% | 113% | 92.1% | 99.2% | 99.8% | 101% | 95.9% | 97.9% | 101% | 111% | > 10 µM | > 10 µM | > 10 µM | > 10 µM | 0 | 0 | 0 | 0 |  |  |  |  |  |  | 
2 | O=C(NS(=O)(=O)c1ccc(Br)s1)c1ccc(Cl)cc1Cl [tasisulam] | 99.7% | 104% | 94.9% | 101% | 92% | 96.2% | 104% | 97.6% | 95.4% | 100% | 114% | 94.2% | 105% | 110% | 107% | 97.2% | 98.1% | 96% | 101% | 102% | > 10 µM | > 10 µM | > 10 µM | > 10 µM | 0 | 0 | 0 | 0 |  |  |  |  |  |  | 
3 | Nc1ccc(-c2nc3ccc(-c4nc5ccc(N)cc5[nH]4)cc3[nH]2)cc1 [Ro-90-7501] | 94% | 91.6% | 96.8% | 95.3% | 99.7% | 104% | 105% | 102% | 102% | 97% | 98.3% | 98.7% | 93.4% | 79.5% | 54.6% | 105% | 94.5% | 100% | 98.5% | 100% | > 10 µM | > 10 µM |  | > 10 µM | 0 | 0 | 4.5 | 0 | 93.3% | 101% | 89.7% | 98.7% | 113% | > 10 µM | 0
4 | COc1cccc(N2CCN(C3=Nc4c(F)cccc4[C@H](CC(=O)O)N3c3cc(C(F)(F)F)ccc3OC)CC2)c1 [letermovir] | 97.4% | 103% | 103% | 97.9% | 83.1% | 99.6% | 96% | 93.9% | 101% | 113% | 102% | 86.2% | 94.3% | 99.1% | 90.6% | 105% | 106% | 95.8% | 105% | 94.9% | > 10 µM | > 10 µM | > 10 µM | > 10 µM | 0.6 | 0 | 0 | 0 |  |  |  |  |  |  | 
